The values below come from publication doi:10.1101/2020.10.02.321802v3 (bioRxiv, 2020).

The test system of data set [1] is E. coli MG1655. As to the kind of experiment: Growth curves with single AMPs and combinations of AMPs. Type of data set: cell-based, Escherichia coli. Particulars: single compound at the "full" concentration, 6 hours.
The subject of data set [2] is E. coli MG1655. Kind of data set: MIC and IC50 measurement. Particulars: for IC50 / MIC: OD590 after 16 hours. Type of data set: cell-based, Escherichia coli.
The next data set has as its system P. aeruginosa PA14. As to the kind of experiment: MIC and IC50 measurement. Type of data set: cell-based, Pseudomonas aeruginosa. Particulars: for IC50 / MIC: OD590 after 16 hours.
A further data set relates to E. coli ATCC 25922. As to the kind of experiment: MIC and IC50 measurement. Type of data set: cell-based, Escherichia coli. As to conditions: for IC50 / MIC: OD590 after 16 hours.
For data set [3], the system named is wild-type strain (Keio deletion library). As to the kind of experiment: MIC and IC50 on Keio collection strains. Type of data set: cell-based, Escherichia coli.
The test system of data set [4] is ΔrfaY deletion mutant (Keio deletion library). As to the kind of experiment: MIC and IC50 on Keio collection strains. Type of data set: cell-based, Escherichia coli.
The conditions of data set [5]: ref Michod et al., 2009; cited from earlier work.
For data set [6], the system named is ΔlpxL deletion mutant (Keio deletion library). Kind of data set: MIC and IC50 on Keio collection strains. Type of data set: cell-based, Escherichia coli.
Another data set has as its system S. aureus ATCC 29213. As to the kind of experiment: Selection of resistant mutants by serial passage, MIC per passage. Type of data set: cell-based, Staphylococcus aureus.
Setting [7] is: BM2 Mg^high (BM2 with 2 mM MgSO4).
The mark [8] stands for this setting: BM2 Mg^low (BM2 with 20 μM MgSO4).
The mark [9] stands for this setting: LB Mg^high (LB with 2 mM MgSO4).
The mark [10] stands for this setting: LB containing EDTA at concentrations that do not affect bacterial proliferation.

In brackets after ≈: the same amount, converted by molar mass. Bridge positions count the residues as written; N and C are the ends. Square brackets hold non-standard residues; d marks the D form. Peptide text beside a SMILES is read from it. * marks the point of attachment. X1 = CC[C@H](C)CCCCC(=O)*; Dab = NCC[C@H](N)C(=O)O

`CC[C@H](C)CCCCC(=O)N[C@@H](CCN)C(=O)N[C@H](C(=O)N[C@@H](CCN)C(=O)N[C@H]1CCNC(=O)[C@H]([C@@H](C)O)NC(=O)[C@H](CCN)NC(=O)[C@H](CCN)NC(=O)[C@H](CC(C)C)NC(=O)[C@@H](Cc2ccccc2)NC(=O)[C@H](CCN)NC1=O)[C@@H](C)O` [Polymyxin B, polymyxin B] (X1-[Dab]T[Dab][Dab][Dab][dF]L[Dab][Dab]T; lactam 4-C (inferred); N-terminus assumed): in the data set on E. coli MG1655 [1], the growth inhibition is ~ 35%. Moreover, the 50% inhibitory concentration (IC50) (commonly the point on the concentration scale where inhibition reaches its midpoint) in the data set with E. coli MG1655 [2] (setting [7]) came to 0.8 µg/mL; with E. coli MG1655 [2] (setting [8]) it was 1.0 µg/mL; in the data set on E. coli MG1655 [2] (LB, GraphPad Prism 8) it was 0.6 µg/mL; in the data set with P. aeruginosa PA14 (setting [7]), 0.5 µg/mL; in the data set on P. aeruginosa PA14 (LB), 2.1 µg/mL; in the data set on E. coli ATCC 25922 (setting [9]) it was 2.7 µg/mL. This compound also showed an IC50 with E. coli ATCC 25922 (LB) of 1.8 µg/mL. Also, the MIC (usually the lowest concentration found to suppress growth) came to 2 µg/mL in the data set on E. coli MG1655 [2] (setting [7]); 2 µg/mL against E. coli MG1655 [2] (setting [8]); 2 µg/mL with E. coli MG1655 [2] (setting [9]); 1 µg/mL in the data set on E. coli MG1655 [2] (LB); 1 µg/mL against P. aeruginosa PA14 (setting [7]); 4 µg/mL in the data set with P. aeruginosa PA14 (setting [8]). For the same compound, the MIC came out at 2 µg/mL in the data set on P. aeruginosa PA14 (setting [9]), 4 µg/mL in the data set on P. aeruginosa PA14 (LB), 4 µg/mL in the data set on E. coli ATCC 25922 (setting [9]) and 2 µg/mL against E. coli ATCC 25922 (LB). The “impact of low magnesium in BM2 medium on MIC” value in the data set with E. coli MG1655 [2] (BM2 Mg^low vs BM2 Mg^high) was “no impact”. The “effect of EDTA on MIC” value with E. coli MG1655 [2] (setting [10]) and in the data set with E. coli ATCC 25922 (setting [10]) was “less affected” each time. In addition, the “effect of soluble LPS on efficacy (MIC)” value in the data set on E. coli MG1655 [2] (LB containing purified E. coli LPS, averages of two independent experiments) is “greatly diminishes the efficacy”. For the same compound, the “increase of MIC by low magnesium in BM2 medium” value with P. aeruginosa PA14 (BM2 Mg^low vs BM2 Mg^high) turned out to be 4 fold.
Turning to `CSCC[C@@H](NC(=O)[C@@H](Cc1c[nH]c2ccccc12)NC(=O)[C@H](NC(=O)[C@H](NC(=O)[C@@H](CC(N)=O)NC(=O)[C@@H](CC(C)C)NC(=O)[C@@H](CCCNC(=N)N)NC(=O)[C@H](NC(=O)[C@H](N)CC(=O)O)[C@H](C)O)[C@H](C)O)C(C)C)C(=O)N[C@H](Cc1c[nH]c2ccccc12)C(=O)NCC(=O)NCC(=O)N[C@H](CCCNC(=N)N)C(=O)N[C@H](CCCNC(=N)N)C(=O)N[C@H](CCCNC(=N)N)C(=O)N[C@H](CCC(N)=O)C(=O)N[C@H](CCCNC(=N)N)C(=O)N[C@H](CCCNC(=N)N)C(=O)N[C@H](CCCCN)C(=O)N[C@H](CCCCN)C(=O)N[C@H](CCCNC(=N)N)C(=O)NCC(=O)O` [TAT-RasGAP317-326] (H-[dD][dT][dR][dL][dN][dT][dV][dW][dM][dW]GG[dR][dR][dR][dQ][dR][dR][dK][dK][dR]G-OH), the IC50 in [3] (Strain 1) was determined as 4.1 µM; in data set [3] (Strain 2), 4.8 µM; with E. coli MG1655 [2] (setting [7]), 2 µM; in the data set on E. coli MG1655 [2] (setting [8]) it was 0.3 µM; in the data set on E. coli MG1655 [2] (setting [9]), 16.3 µM; in the data set on E. coli MG1655 [2] (LB, GraphPad Prism 8) it was 3 µM. The IC50 was 7.1 µM in data set [4] (Strain 1); 7.8 µM in data set [4] (Strain 2); 10.1 µM with P. aeruginosa PA14 (setting [7]); 1.7 µM with P. aeruginosa PA14 (setting [8]); 20.8 µM in the data set with P. aeruginosa PA14 (setting [9]); 7.2 µM in the data set with P. aeruginosa PA14 (LB). In addition, the concentration for half-maximal inhibition (IC50) in data set [6] (Strain 1) was 2 µM; in data set [6] (Strain 2), 2.2 µM; with E. coli ATCC 25922 (setting [9]), 52 µM; in the data set with E. coli ATCC 25922 (LB) it was 5.2 µM. The MIC in [3] (Strain 1) stood at 7.5 µM (≈ 21.1 µg/mL); in data set [3] (Strain 2), 7.5 µM (≈ 21.1 µg/mL); against E. coli MG1655 [2] (setting [7]) it was 4 µM; against E. coli MG1655 [2] (setting [8]), 0.5 µM; against E. coli MG1655 [2] (setting [9]), 32 µM; in the data set on E. coli MG1655 [2] (LB), 8 µM. In addition, the minimum inhibitory concentration (MIC) in data set [4] (Strain 1) was 10 µM (≈ 28.1 µg/mL); in [4] (Strain 2), 10 µM (≈ 28.1 µg/mL); in the data set on P. aeruginosa PA14 (setting [7]), 32 µM; against P. aeruginosa PA14 (setting [8]), 4 µM; against P. aeruginosa PA14 (setting [9]) it was 64 µM; in the data set on P. aeruginosa PA14 (LB) it was 32 µM. Moreover, the MIC in data set [6] (Strain 1) was 2.5 µM (≈ 7.04 µg/mL); in [6] (Strain 2), 2.5 µM (≈ 7.04 µg/mL); in the data set on E. coli ATCC 25922 (setting [9]), 128 µM; in the data set with E. coli ATCC 25922 (LB), 8 µM. Further, the biodistribution and clearance entry in [5] was “poor biodistribution and rapid clearance”. The MIC after selection with S. aureus ATCC 29213 (S. aureus passaged in presence of peptide, rapidly increased) came to 256 µM. Further, in the data set on S. aureus ATCC 29213 (parental strain of S. aureus), the “MIC of the parental strain” value was in the range of 64 to 128 µM.
Turning to melittin, the growth inhibition in the data set with E. coli MG1655 [1] is listed as ~ 20%.
